Assay results published in patent US20260042764A1, “COMPOSITIONS AND METHODS FOR INHIBITION OF KRAS” (TheRas, Inc., priority 2022, published 2026).

Key:
[1] = biological target: T1, Avi-KRAS WT (2-169) GTP/RAF1 RBD-3xFLAG (51-131) (Homo sapiens, UniProt P01116); assay: Raf1-KRAS WT-GTP disruption HTRF assay (Biological Example 3); type: binding; settings: KRAS WT, GTP-loaded
T1 construct: Avi-KRAS WT (2-169)
In short: (§1)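 An HTRF assay measured disruption of 50 nM Avi-KRAS (2-169)-GTP (WT, G12C, G12D or G12V) bound to RAF1 RBD-3xFLAG (51-131). Buffer was Tris pH 7.5 with 5 mM MgCl2 and 10% DMSO. Compounds (30–0.005 μM, 3-fold, 10 points) were incubated 1 h at room temperature, and activity is given as % of DMSO.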

SW1900 cells (KRAS G12D) = assay: 3D Cell viability assay in SW1900 cells (Biological Example 6); type: cell-based; settings: SW1990 (text: SW1900, KRAS G12D) spheroids, 72 hours
Protocol: (§2) Biological Example 6: 3D Cell viability assay in AsPC-1, SW1900, HPAC, Capan-2, RKN, H358, HCT116, KP-2, H1573, A549, MKN1, and HT1080 cells
(§3) The inhibition of cellular viability as a result of test compound treatment in a spheroid assay was measured using the CellTiter-Glow 3D Cell Viability Assay (Promega).
(§4) On Day 1, 1000 cells per well were seeded in 150 μL of complete growth media supplemented with 10% fetal bovine serum (FBS) and incubated at 37° C., in the presence of 5% CO2 in 96-well ultra-low attachment microplates (Corning) for 48 hours undisturbed to allow spheroids to form.
(§5) Following spheroid formation, cells were treated with compounds diluted in DMSO at 0.25% final DMSO concentration. Compounds were dosed in a 9-point concentration curve with three-fold dilution between concentrations. Cells were incubated in the presence of compound for 72 hours at 37° C., in the presence of 5% CO2.
(§6) Following this incubation period, the kit-provided CTG reagent was allowed to equilibrate for 30 minutes at room temperature, 150 μL of equilibrated CTG reagent was added to each well, and the plate was sealed before shaking at 250 rpm for 10 minutes at room temperature to lyse the cells, 150 μL of lysate per well was transferred to a 96-well plate and luminescence was read on a CLARIOstar plate reader.
(§7) Data was imported into the Prism software package (Graphpad) and EC50 values were calculated using the log (inhibitor) vs, response—variable slope (Four parameters) model.

H358 cells (KRAS G12C) = assay: 3D Cell viability assay in H358 cells (Biological Example 6); type: cell-based; settings: H358 (KRAS G12C) spheroids, 72 hours
Protocol: as §2, §3, §4, §5, §6, §7

GP2d cells (KRAS G12D) = assay: Cell-based pERK HTRF assay in GP2d cell (Biological Example 2); settings: GP2d (KRAS G12D) cells
In short: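 Treatment with test compounds lasted one hour in DMEM containing 10% FBS, with DMSO held at 0.25%. Dilution series: 9 points, half-log spacing, highest 1 μM or 100 nM. Lysates were incubated 4–24 h at room temperature with antibody mix, then HTRF was read at 320 nm excitation.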

[2] = biological target: T2, Avi-KRAS G12D (2-169) GTP/RAF1 RBD-3xFLAG (51-131) (Homo sapiens, UniProt P01116, G12D); assay: Raf1-KRAS G12D-GTP disruption HTRF assay (Biological Example 3); type: binding; settings: KRAS G12D, GTP-loaded
T2 construct: Avi-KRAS G12D (2-169)
In short: as §1

[3] = tested on: MKN1 cells (KRAS amplification); assay: 3D Cell viability assay in MKN1 cells (Biological Example 6); type: cell-based; settings: MKN (MKN1, KRAS amplification) spheroids, 72 hours
Protocol: as §2, §3, §4, §5, §6, §7

T2 sequence (P01116 2-169 isoform P01116-2 G12D): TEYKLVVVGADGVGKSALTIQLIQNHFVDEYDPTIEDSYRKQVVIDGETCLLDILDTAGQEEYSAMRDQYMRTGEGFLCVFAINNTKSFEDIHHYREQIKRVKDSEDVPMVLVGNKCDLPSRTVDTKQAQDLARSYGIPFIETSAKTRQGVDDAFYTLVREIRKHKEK
T1 sequence (P01116 2-169 isoform P01116-2): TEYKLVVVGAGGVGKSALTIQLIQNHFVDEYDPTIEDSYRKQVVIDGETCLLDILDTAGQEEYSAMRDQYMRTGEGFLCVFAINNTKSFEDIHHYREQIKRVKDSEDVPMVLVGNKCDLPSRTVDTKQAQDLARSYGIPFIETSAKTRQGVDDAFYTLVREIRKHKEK

| Compound | IC50 [1] [nM] | IC50 (SW1900 cells (KRAS G12D); Homo sapiens) [nM] | IC50 (H358 cells (KRAS G12C); Homo sapiens, NCI-H358) [nM] | IC50 (GP2d cells (KRAS G12D); GP2d) [nM] | IC50 (GP2d cells (KRAS G12D); GP2d, pERK HTRF, class symbols) [nM] | IC50 [2] [nM] | IC50 ([3]; Homo sapiens, MKN-1) [nM] | IC50 (GP2d cells (KRAS G12D); GP2d, pERK HTRF) [nM] | IC50 (GP2d cells (KRAS G12D); pERK HTRF) [nM] | IC50 (SW1900 cells (KRAS G12D)) [nM] | IC50 (H358 cells (KRAS G12C)) [nM] | IC50 (GP2d cells (KRAS G12D)) [nM] | IC50 [3] [nM] |
| --- | --- | --- | --- | --- | --- | --- | --- | --- | --- | --- | --- | --- | --- |
| CCN(c1nc(OC[C@@]23CCCN2C[C@H](F)C3)nc2c(F)c(-c3ccc(F)c4sc(N)c(C#N)c34)c(C(F)(F)F)cc12)[C@H]1C[C@@H](C)N(C(=O)C2COC2)C1 (atropisomer, axis not shown) [Compound 586] | 100 to 1000 | ≤ 100 | ≤ 100 | < 100 | < 100 | 100 to 1000 | ≤ 100 | – | – | – | – | – | – |
| CCN(c1nc(OC[C@@]23CCCN2C[C@H](F)C3)nc2c(F)c(-c3ccc(F)c4sc(N)c(C#N)c34)c(C(F)(F)F)cc12)[C@H]1C[C@H](C)N(C(=O)N2CC(OC)C2)C1 (atropisomer, axis not shown) [Compound 764] | 100 to 1000 | ≤ 100 | ≤ 100 | < 100 | < 100 | ≤ 100 | ≤ 100 | – | – | – | – | – | – |
| CCN(c1nc(OC[C@@]23CCCN2C[C@H](F)C3)nc2c(F)c(-c3ccc(F)c4sc(N)c(C#N)c34)c(C(F)(F)F)cc12)[C@H]1CCN(C(C)=O)C1 [Compound 262] | 100 to 1000 | ≤ 100 | ≤ 100 | < 100 | – | ≤ 100 | ≤ 100 | < 100 | – | – | – | – | – |
| CCN(c1nc(OC[C@@]23CCCN2C[C@H](F)C3)nc2c(F)c(-c3ccc(F)c4sc(N)c(C#N)c34)c(C(F)(F)F)cc12)[C@H]1C[C@H](COC)N(C(=O)C2CC2)C1 (atropisomer, axis not shown) [Compound 696] | 100 to 1000 | ≤ 100 | ≤ 100 | < 100 | < 100 | ≤ 100 | ≤ 100 | – | – | – | – | – | – |
| N#Cc1c(N)sc2c(F)ccc(-c3c(C(F)(F)F)cc4c(N5CC6CC(C5)O6)nc(OC[C@@]56CCCN5C[C@H](F)C6)nc4c3F)c12 (single isomer, unassigned) [Compound 275] | 100 to 1000 | ≤ 100 | ≤ 100 | < 100 | – | 100 to 1000 | ≤ 100 | – | < 100 | – | – | – | – |
| C[C@H]1Cn2nc(C(=O)N(C)C)cc2CN1c1nc(OC[C@@]23CCCN2C[C@H](F)C3)nc2c(F)c(-c3ccc(F)c4sc(N)c(C#N)c34)c(C(F)(F)F)cc12 (atropisomer, axis not shown) [Compound 610] | 1000 to 10000 | ≤ 100 | ≤ 100 | < 100 | < 100 | 100 to 1000 | ≤ 100 | – | – | – | – | – | – |
| CCN(c1nc(OC[C@@]23CCCN2C[C@H](F)C3)nc2c(F)c(-c3ccc(F)c4sc(N)c(C#N)c34)c(C(F)(F)F)cc12)[C@H]1CC(=O)N2CCC[C@@H]12 (atropisomer, axis not shown; (aS)) [Compound 697, 2-amino-4-((S)-4-(ethyl((1S,7aS)-3-oxohexahydro-1H-pyrrolizin-1-yl)amino)-8-fluoro-2-(((2R,7aS)-2-fluorotetrahydro-1H-pyrrolizin-7a(5H)-yl)methoxy)-6-(trifluoromethyl)quinazolin-7-yl)-7-fluorobenzo[b]thiophene-3-carbonitrile] | ≤ 100 | ≤ 100 | ≤ 100 | < 100 | < 100 | ≤ 100 | ≤ 100 | – | – | – | – | – | – |
| CCN(c1nc(OC[C@@]23CCCN2C[C@H](F)C3)nc2c(F)c(-c3ccc(F)c4sc(N)c(C#N)c34)c(C(F)(F)F)cc12)[C@H]1CCN(C(=O)C2CC2)[C@@H]1C (atropisomer, axis not shown) [Compound 579] | 100 to 1000 | ≤ 100 | ≤ 100 | < 100 | < 100 | ≤ 100 | ≤ 100 | – | – | – | – | – | – |
| Cc1c(C(=O)N(C)C)nn2c1CN(c1nc(OC[C@@]34CCCN3C[C@H](F)C4)nc3c(F)c(-c4ccc(F)c5sc(N)c(C#N)c45)c(C(F)(F)F)cc13)CC2 (atropisomer, axis not shown; (aS)) [Compound 590, 5-((S)-7-(2-amino-3-cyano-7-fluorobenzo[b]thiophen-4-yl)-8-fluoro-2-(((2R,7aS)-2-fluorotetrahydro-1H-pyrrolizin-7a(5H)-yl)methoxy)-6-(trifluoromethyl)quinazolin-4-yl)-N,N,3-trimethyl-4,5,6,7-tetrahydropyrazolo[1,5-a]pyrazine-2-carboxamide] | 100 to 1000 | – | – | – | < 100 | 100 to 1000 | – | – | – | ≤ 100 | ≤ 100 | < 100 | ≤ 100 |
| CCN(c1nc(OC[C@@]23CCCN2C[C@H](F)C3)nc2c(F)c(-c3ccc(F)c4sc(N)c(C#N)c34)c(C(F)(F)F)cc12)[C@H]1CCN(C(=O)C(C)C)C1 [Compound 332] | 100 to 1000 | ≤ 100 | ≤ 100 | < 100 | – | 100 to 1000 | ≤ 100 | < 100 | – | – | – | – | – |
| CCN(c1nc(OC[C@@]23CCCN2C[C@H](F)C3)nc2c(F)c(-c3ccc(F)c4sc(N)c(C#N)c34)c(C(F)(F)F)cc12)[C@H]1C[C@H](C)N(C(=O)OC)C1 (atropisomer, axis not shown) [Compound 704] | 100 to 1000 | ≤ 100 | ≤ 100 | < 100 | < 100 | 100 to 1000 | ≤ 100 | – | – | – | – | – | – |
